One series addresses T1, PARP-1 enzyme (Homo sapiens, UniProt P09874).
T1 construct: purchased BPS Bioscience
Briefly: PARP-1 enzyme activity test (BPS Bioscience chemiluminescence kit). The class given is biochemical. How it is done: PARP-1 chemical […] detection kit was purchased from BPS Bioscience. The histone solution in the kit was diluted 5× with 1×PBS, and 25 μL of the diluted histone solution was added to a microwell plate and incubated overnight at 4° C. After the incubation, the plate was washed three times with PBST (0.05% Tween-20). 100 μL of the blocking solution was added to the microwell plate and incubated at 25° C. for 90 minutes. After the incubation, the plate was washed three times with PBST. 2.5 μL of compounds at different concentrations diluted in test buffer and 12.5 μL of substrate mixed solution (1.25 μL 10× PARP test buffer; 1.25 μL 10× PARP test mixed solution; 2.5 μL Activated DNA, 7.5 μL double-distilled water) were added to the microwell plate. The PARP-1 enzyme was diluted to 2 ng/μL, 10 μL of the diluent was added to the microwell plate, and the reaction system was incubated at 25° C. for 60 minutes.
After the incubation, the plate was washed three times with PBST. Streptavidin-HRP was diluted 50× with a blocking solution, and 25 μL of the diluent was added to the microwell plate and incubated at 25° C. for 30 minutes. After the incubation, the plate was washed three times with PBST. ELISA ECL substrate A and substrate B were mixed at a ratio of 1:1 (v/v), 50 μL of the mixture was added to the microwell plate, and the chemiluminescence value was read.
The inhibition rate was calculated according to formula 1, where RLUsample was the readout of the compound well, RLUmax was the readout of the solvent control well, and RLUmin was the readout of the control well without the PARP-1 enzyme. Curve fitting was performed by four parameters (log (inhibitor) vs. response—Variable slope) using GraphPad Prism software, and the IC50 value was calculated.

Series [1] is described as follows: Pharmacokinetic test in rats. The format is in vivo, SD rats. On the procedure: • 1.1 Experimental animals: male SD rats, about 220 g, 6-8 weeks old, 6 rats/compound, purchased from Chengdu Ddossy Experimental Animals Co., Ltd. • 1.2 Experimental design: on the day of the test, 6 SD rats were randomly grouped according to their body weight; the animals were fasted with water available for 12 to 14 h one day before the administration, and were fed 4 h after the administration.
Before and after the administration, 0.15 ml of blood was taken from the orbit of the animals under isoflurane anesthesia and placed in an EDTAK2 centrifuge tube. The blood was centrifuged at 5000 rpm and 4° C. for 10 min to collect plasma. The blood collection time points for the intravenous administration group and intragastric administration group were: 0, 5 min, 15 min, 30 min, 1 h, 2 h, 4 h, 6 h, 8 h, and 24 h. Before analysis and detection, all samples were stored at −80° C., and a quantitative analysis of samples was performed using LC-MS/MS.

The test system of another series is MDA-MB-436 cells. In words: MDA-MB-436 cell activity test (CellTiter-Glo, 7 days). The class given is cell-based. The following applies: Homo sapiens; for IC50: MDA-MB-436, 168 h, 7 days incubation; for inhibition at 10 µM: MDA-MB-436 cells, read-out: Max inh. % 10 μM. How it is done:
Breast tumor cells MDA-MB-436 were purchased from ATCC, the culture medium was Leibovitz's L-15+10% FBS, and the cells were cultured in a CO2-free incubator at 37° C. On day 1, the cells in the exponential growth phase were collected, and the cell suspension was adjusted to 4000 cells/135 μL with the culture medium. 135 μL of the cell suspension was added to each well of a 96-well cell culture plate and incubated overnight. On day 2, compounds at different concentrations were added, and the plate was placed in the incubator and incubated for 7 days. After the incubation was completed, according to operation instructions for a CellTiter-Glo kit (Promega, G7573), 75 μL of CTG solution, which was already pre-melted and equilibrated to room temperature, was added to each well, and the mixture was uniformly mixed for 2 min using a microplate shaker. The plate was placed at room temperature for 10 min, and then […] were measured using an Envision2104 plate reader (PerkinElmer). The inhibition rate was calculated using formula (1), where RLUcompound was the readout of the drug treated group, RLUcontrol was the average value of the vehicle control group, and RLUblank was the average value of the cell-free well. The IC50 value was calculated using GraphPad Prism software.

Series [2] can be described thus: Pharmacokinetic test in mice. The format is in vivo, ICR mice. On the procedure: • 3.1 Experimental animals: male ICR mice, 20-25 g, 18 mice/compound. purchased from Chengdu Ddossy Experimental Animals Co., Ltd. • 3.2 Experimental design: on the day of the test, 18 ICR mice were randomly grouped according to their body weights. the animals were fasted with water available for 12 to 14 h one day before the administration, and were fed 4 h after the administration. [table] Before and after the administration, 0.06 mL of blood was taken from the orbit of the animals under isoflurane anesthesia and placed in an EDTAK2 centrifuge tube. The blood was centrifuged at 5000 rpm and 4° C. for 10 min to collect plasma. The blood collection time points for the intravenous group and intragastric administration group were: 0 min, 5 min, 15 min, 30 min, 1 h, 2 h, 4 h, 6 h, 8 h, and 24 h. Before analysis and detection, all samples were stored at −80° C., and a quantitative analysis of samples was performed using LC-MS/MS.

Where [3] appears, read: grades, read-out: PARP-1 enzyme activity IC50.
Where [4] appears, read: values in text, read-out: IC50 values on PARP-1.
Where [5] appears, read: male, SD, rat, iv, rats, i.v. 2.5 mg/kg, plasma.
[6] abbreviates: male, ICR, mouse, iv, mice, i.v. 2.5 mg/kg, plasma.

Read-outs that look alike come from different tables or passages of the source. Where only a bound is given, the exact number is not on record here.

T1 sequence (P09874 whole entry): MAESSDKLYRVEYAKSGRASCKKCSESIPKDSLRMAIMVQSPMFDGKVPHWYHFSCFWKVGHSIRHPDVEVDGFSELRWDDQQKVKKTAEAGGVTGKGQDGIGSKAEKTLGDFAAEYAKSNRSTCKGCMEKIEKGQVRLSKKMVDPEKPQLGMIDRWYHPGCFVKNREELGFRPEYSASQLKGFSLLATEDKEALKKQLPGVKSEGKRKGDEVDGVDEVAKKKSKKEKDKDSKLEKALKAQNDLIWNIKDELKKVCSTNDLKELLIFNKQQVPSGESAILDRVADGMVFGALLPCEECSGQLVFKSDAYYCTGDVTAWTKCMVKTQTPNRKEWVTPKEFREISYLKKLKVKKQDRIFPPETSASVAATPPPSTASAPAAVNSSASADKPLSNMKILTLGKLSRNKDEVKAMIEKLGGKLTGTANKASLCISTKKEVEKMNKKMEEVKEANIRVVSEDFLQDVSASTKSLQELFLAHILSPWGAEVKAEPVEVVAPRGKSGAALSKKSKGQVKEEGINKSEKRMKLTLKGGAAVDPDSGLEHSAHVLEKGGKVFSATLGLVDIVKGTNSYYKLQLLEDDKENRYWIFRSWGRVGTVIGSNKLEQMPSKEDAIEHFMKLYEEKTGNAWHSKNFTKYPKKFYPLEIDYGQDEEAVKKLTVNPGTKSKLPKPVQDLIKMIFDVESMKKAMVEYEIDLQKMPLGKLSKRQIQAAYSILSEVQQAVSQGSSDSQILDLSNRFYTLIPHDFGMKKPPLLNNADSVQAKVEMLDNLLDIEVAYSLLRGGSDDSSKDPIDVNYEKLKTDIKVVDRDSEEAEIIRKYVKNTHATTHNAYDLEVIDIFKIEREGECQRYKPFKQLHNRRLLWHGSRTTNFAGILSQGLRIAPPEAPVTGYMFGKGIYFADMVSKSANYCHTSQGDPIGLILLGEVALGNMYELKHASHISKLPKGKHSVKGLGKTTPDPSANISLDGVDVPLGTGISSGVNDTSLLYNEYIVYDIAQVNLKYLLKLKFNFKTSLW

What is called IC50 is the concentration at which inhibition is half-maximal. A word on the AUC(0-t): it is the area under the concentration-time curve up to a stated or last time point. Read a high AUC(0-t) as more exposure. Usually clearance stands for a measure of how efficiently the substance is removed, as volume per time. Regarding `CNC(=O)c1ccc(N2CCN(Cc3cnc4cc(C5CC5)c(=O)[nH]c4c3)CC2)cn1` [Compound 2, 5-(4-((7-cyclopropyl-6-oxo-5,6-dihydro-1,5-naphthyridin-3-yl)methyl)piperazin-1-yl)-N-methylpicolinamide], the IC50 is no more than 1 nM on PARP-1 enzyme (setting [3]), 0.9 nM at PARP-1 enzyme (setting [4]) and 5.1 nM in the series with MDA-MB-436 cells. Also, the “pharmacokinetic characteristics in rats” value in series [1] (conclusion in words) is listed as “good pharmacokinetic characteristics”. In addition, the AUC(0-t) in series [1] (setting [5]) is 70.8 µg·h/mL; in series [1] (male, SD, rat, po, rats, i.g. 10 mg/kg, plasma), 206 µg·h/mL. Further, the clearance in series [1] (setting [5]) was found to be 0.585 mL/min/kg. The Vd in series [1] (male, SD, rat, iv, rats, i.v. 2.5 mg/kg, plasma, read-out: Vdss) was 0.169 L/kg. Further, in series [1] (rats, i.g. 10 mg/kg), the F was found to be 72.6%. Moreover, the inhibition at 10 µM in the series with MDA-MB-436 cells amounted to 86.3%.
On to `O=C(NC1CC1)c1ccc(C2=CCN(Cc3cnc4cc(C5CC5)c(=O)[nH]c4c3)CC2)cn1` [Compound 3, N-cyclopropyl-1′-((7-cyclopropyl-6-oxo-5,6-dihydro-1,5-naphthyridin-3-yl)methyl)-1′,2′,3′,6′-tetrahydro-[3,4′-bipyridine]-6-carboxamide], for which the “pharmacokinetic characteristics in mice” value in series [2] (conclusion in words) was “good pharmacokinetic characteristics”. In addition, the AUC(0-t) in series [2] (setting [6]) amounted to 108 µg·h/mL; in series [2] (male, ICR, mouse, po, mice, i.g. 10 mg/kg, plasma) it was 707 µg·h/mL. The compound also gave a clearance in series [2] (setting [6]) of 0.346 mL/min/kg. Further, in series [2] (male, ICR, mouse, iv, mice, i.v. 2.5 mg/kg, plasma, read-out: Vdss), the Vd came to 0.207 L/kg. Further, the F in series [2] (mice, i.g. 10 mg/kg) is 164%. For the same compound, the IC50 on PARP-1 enzyme (setting [3]) is no more than 1 nM; at PARP-1 enzyme (setting [4]) it was 0.6 nM; with MDA-MB-436 cells, 4.5 nM. Besides, in the series on MDA-MB-436 cells, the inhibition at 10 µM was 82.1%.
As to `O=C(NC1CC1)c1ccc(N2CCN(Cc3cnc4cc(C5CC5)c(=O)[nH]c4c3)CC2)cn1` [Compound 5, N-cyclopropyl-5-(4-((7-cyclopropyl-6-oxo-5,6-dihydro-1,5-naphthyridin-3-yl)methyl)piperazin-1-yl)picolinamide], the IC50 was no more than 1 nM at PARP-1 enzyme (setting [3]), 0.74 nM on PARP-1 enzyme (setting [4]) and 5.6 nM with MDA-MB-436 cells. Also, in the series on MDA-MB-436 cells, the inhibition at 10 µM was determined as 80.7%.
On the same counts, the results for `Cn1cc(NC(=O)c2ccc(N3CCN(Cc4cnc5cc(C6CC6)c(=O)[nH]c5c4)CC3)cn2)cn1` [Compound 6, 5-(4-((7-cyclopropyl-6-oxo-5,6-dihydro-1,5-naphthyridin-3-yl)methyl)piperazin-1-yl)-N-(1-methyl-1H-pyrazol-4-yl)picolinamide] are no more than 1 nM, 0.54 nM, 2.8 nM and 85.4%.
Consider `O=c1[nH]c2cc(CN3CCN(c4cn5cc(C(F)(F)F)nc5cn4)CC3)cnc2cc1C1CC1` [Compound 8, 3-cyclopropyl-7-((4-(2-(trifluoromethyl)imidazo[1,2-a]pyrazin-6-yl)piperazin-1-yl)methyl)-1,5-naphthyridin-2(1H)-one], for which, on PARP-1 enzyme (setting [4]), the IC50 is 1.2 nM. Besides, in the series with MDA-MB-436 cells, the midpoint of inhibition, the IC50, lay at 1.1 nM and the inhibition at 10 µM amounted to 97.4%.
